Laboratory results published in ChEMBL document CHEMBL5543142, “Discovery of YFJ-36: Design, Synthesis, and Antibacterial Activities of Catechol-Conjugated β-Lactams against Gram-Negative Bacteria” (J Med Chem, 2024).

Legend:
Escherichia coli [1] = assay: Antibacterial activity against ESBL-producing multidrug-resistant Escherichia coli clinical isolate 14-1 assessed as inhibition of bacterial growth incubated for 18 to 20 hrs by two fold serial dilution assay; format: functional; conditions: time 18-20 hrs
Escherichia coli [2] = assay: Antibacterial activity against ESBL-producing multidrug-resistant Escherichia coli clinical isolate 14-2 assessed as inhibition of bacterial growth incubated for 18 to 20 hrs by two fold serial dilution assay; format: functional; conditions: time 18-20 hrs
Escherichia coli [3] = assay: Antibacterial activity against ESBL-producing multidrug-resistant Escherichia coli clinical isolate 14-4 assessed as inhibition of bacterial growth incubated for 18 to 20 hrs by two fold serial dilution assay; format: functional; conditions: time 18-20 hrs
Klebsiella pneumoniae [4] = assay: Antibacterial activity against KPC-2 producing multidrug-resistant Klebsiella pneumoniae clinical isolate 15-1 assessed as inhibition of bacterial growth incubated for 18 to 20 hrs by two fold serial dilution assay; format: functional; conditions: time 18-20 hrs
Klebsiella pneumoniae [5] = assay: Antibacterial activity against KPC-2 producing multidrug-resistant Klebsiella pneumoniae clinical isolate 15-2 assessed as inhibition of bacterial growth incubated for 18 to 20 hrs by two fold serial dilution assay; format: functional; conditions: time 18-20 hrs
Klebsiella pneumoniae [6] = assay: Antibacterial activity against KPC-2 producing multidrug-resistant Klebsiella pneumoniae clinical isolate 15-5 assessed as inhibition of bacterial growth incubated for 18 to 20 hrs by two fold serial dilution assay; format: functional; conditions: time 18-20 hrs
Escherichia coli [7] = assay: Antibacterial activity against Escherichia coli ATCC35218 assessed as inhibition of bacterial growth incubated for 18 to 20 hrs by two fold serial dilution assay; format: functional; conditions: time 18-20 hrs
Pseudomonas aeruginosa [8] = assay: Antibacterial activity against IMP-4 producing multidrug-resistant Pseudomonas aeruginosa clinical isolate 17-13 assessed as inhibition of bacterial growth incubated for 18 to 20 hrs by two fold serial dilution assay; format: functional; conditions: time 18-20 hrs
Pseudomonas aeruginosa [9] = assay: Antibacterial activity against IMP-4 producing multidrug-resistant Pseudomonas aeruginosa clinical isolate 17-1 assessed as inhibition of bacterial growth incubated for 18 to 20 hrs by two fold serial dilution assay; format: functional; conditions: time 18-20 hrs
Pseudomonas aeruginosa [10] = assay: Antibacterial activity against IMP-4 producing multidrug-resistant Pseudomonas aeruginosa clinical isolate 19-17 assessed as inhibition of bacterial growth incubated for 18 to 20 hrs by two fold serial dilution assay; format: functional; conditions: time 18-20 hrs
Acinetobacter baumannii [11] = assay: Antibacterial activity against OXA-23 producing multidrug-resistant Acinetobacter baumannii clinical isolate 17-2 assessed as inhibition of bacterial growth incubated for 18 to 20 hrs by two fold serial dilution assay; format: functional; conditions: time 18-20 hrs
Acinetobacter baumannii [12] = assay: Antibacterial activity against OXA-23 producing multidrug-resistant Acinetobacter baumannii clinical isolate 17-3 assessed as inhibition of bacterial growth incubated for 18 to 20 hrs by two fold serial dilution assay; format: functional; conditions: time 18-20 hrs
Pseudomonas aeruginosa [13] = assay: Antibacterial activity against IMP-4 producing multidrug-resistant Pseudomonas aeruginosa clinical isolate 19-5 assessed as inhibition of bacterial growth incubated for 18 to 20 hrs by two fold serial dilution assay; format: functional; conditions: time 18-20 hrs
Pseudomonas aeruginosa [14] = assay: Antibacterial activity against IMP-4 producing multidrug-resistant Pseudomonas aeruginosa clinical isolate 19-1 assessed as inhibition of bacterial growth incubated for 18 to 20 hrs by two fold serial dilution assay; format: functional; conditions: time 18-20 hrs
Acinetobacter baumannii [15] = assay: Antibacterial activity against OXA-23 producing multidrug-resistant Acinetobacter baumannii clinical isolate 17-5 assessed as inhibition of bacterial growth incubated for 18 to 20 hrs by two fold serial dilution assay; format: functional; conditions: time 18-20 hrs
Acinetobacter baumannii [16] = assay: Antibacterial activity against OXA-23 producing multidrug-resistant Acinetobacter baumannii clinical isolate 17-6 assessed as inhibition of bacterial growth incubated for 18 to 20 hrs by two fold serial dilution assay; format: functional; conditions: time 18-20 hrs
Acinetobacter baumannii [17] = assay: Antibacterial activity against OXA-23 producing multidrug-resistant Acinetobacter baumannii clinical isolate 17-7 assessed as inhibition of bacterial growth incubated for 18 to 20 hrs by two fold serial dilution assay; format: functional; conditions: time 18-20 hrs
Acinetobacter baumannii [18] = assay: Antibacterial activity against OXA-23 producing multidrug-resistant Acinetobacter baumannii clinical isolate 17-8 assessed as inhibition of bacterial growth incubated for 18 to 20 hrs by two fold serial dilution assay; format: functional; conditions: time 18-20 hrs
Klebsiella pneumoniae [19] = assay: Antibacterial activity against KPC-2 producing multidrug-resistant Klebsiella pneumoniae clinical isolate 15-3 assessed as inhibition of bacterial growth incubated for 18 to 20 hrs by two fold serial dilution assay; format: functional; conditions: time 18-20 hrs
Acinetobacter baumannii [20] = assay: Antibacterial activity against OXA-23 producing multidrug-resistant Acinetobacter baumannii clinical isolate 15-1 assessed as inhibition of bacterial growth incubated for 18 to 20 hrs by two fold serial dilution assay; format: functional; conditions: time 18-20 hrs
Acinetobacter baumannii [21] = assay: Antibacterial activity against OXA-23 producing multidrug-resistant Acinetobacter baumannii clinical isolate 15-2 assessed as inhibition of bacterial growth incubated for 18 to 20 hrs by two fold serial dilution assay; format: functional; conditions: time 18-20 hrs
Acinetobacter baumannii [22] = assay: Antibacterial activity against OXA-23 producing multidrug-resistant Acinetobacter baumannii clinical isolate 15-3 assessed as inhibition of bacterial growth incubated for 18 to 20 hrs by two fold serial dilution assay; format: functional; conditions: time 18-20 hrs
Acinetobacter baumannii [23] = assay: Antibacterial activity against OXA-23 producing multidrug-resistant Acinetobacter baumannii clinical isolate 15-4 assessed as inhibition of bacterial growth incubated for 18 to 20 hrs by two fold serial dilution assay; format: functional; conditions: time 18-20 hrs
Acinetobacter baumannii [24] = assay: Antibacterial activity against OXA-23 producing multidrug-resistant Acinetobacter baumannii clinical isolate 15-5 assessed as inhibition of bacterial growth incubated for 18 to 20 hrs by two fold serial dilution assay; format: functional; conditions: time 18-20 hrs
Escherichia coli [25] = assay: Antibacterial activity against Escherichia coli NCTC-13353 assessed as inhibition of bacterial growth incubated for 18 to 20 hrs in presence of CAMHB medium by two fold serial dilution assay; format: functional; conditions: time 18-20 hrs
Escherichia coli [26] = assay: Antibacterial activity against Escherichia coli ATCC-35218 assessed as inhibition of bacterial growth incubated for 18 to 20 hrs in presence of CAMHB medium by two fold serial dilution assay; format: functional; conditions: time 18-20 hrs
Klebsiella pneumoniae [27] = assay: Antibacterial activity against Klebsiella pneumoniae ATCC BAA-1898 assessed as inhibition of bacterial growth incubated for 18 to 20 hrs in presence of CAMHB medium by two fold serial dilution assay; format: functional; conditions: time 18-20 hrs
Escherichia coli [28] = assay: Antibacterial activity against Escherichia coli NCTC-13353 assessed as inhibition of bacterial growth incubated for 18 to 20 hrs in presence of iron-depleted CAMHB medium by two fold serial dilution assay; format: functional; conditions: time 18-20 hrs
Escherichia coli [29] = assay: Antibacterial activity against Escherichia coli ATCC-35218 assessed as inhibition of bacterial growth incubated for 18 to 20 hrs in presence of iron-depleted CAMHB medium by two fold serial dilution assay; format: functional; conditions: time 18-20 hrs
Klebsiella pneumoniae [30] = assay: Antibacterial activity against Klebsiella pneumoniae ATCC BAA-1898 assessed as inhibition of bacterial growth incubated for 18 to 20 hrs in presence of iron-depleted CAMHB medium by two fold serial dilution assay; format: functional; conditions: time 18-20 hrs
[31] = AUC (0 to infinity) in ICR mouse at 20 mg/kg,iv administration measured upto 6 hrs by LC-MS/MS analysis; format: ADME, organism-based; conditions: in vivo
[32] = Clearance in ICR mouse at 20 mg/kg,iv administration measured upto 6 hrs by LC-MS/MS analysis; format: ADME, organism-based; conditions: in vivo
[33] = Half life in ICR mouse at 20 mg/kg,iv administration measured upto 6 hrs by LC-MS/MS analysis; format: ADME, organism-based; conditions: in vivo
[34] = MRT in ICR mouse at 20 mg/kg,iv administration measured upto 6 hrs by LC-MS/MS analysis; format: ADME, organism-based; conditions: in vivo
[35] = Volume of distribution at steady state in ICR mouse at 20 mg/kg,iv administration measured upto 6 hrs by LC-MS/MS analysis; format: ADME, organism-based; conditions: in vivo, read-out: Vdss
hERG (KCNH2) = hERG (KCNH2) (Homo sapiens, UniProt Q12809); assay: Inhibition of hERG at 40 uM by whole cell Qpatch assay relative to control; format: toxicity
Sequence of hERG (KCNH2) (Q12809 whole entry): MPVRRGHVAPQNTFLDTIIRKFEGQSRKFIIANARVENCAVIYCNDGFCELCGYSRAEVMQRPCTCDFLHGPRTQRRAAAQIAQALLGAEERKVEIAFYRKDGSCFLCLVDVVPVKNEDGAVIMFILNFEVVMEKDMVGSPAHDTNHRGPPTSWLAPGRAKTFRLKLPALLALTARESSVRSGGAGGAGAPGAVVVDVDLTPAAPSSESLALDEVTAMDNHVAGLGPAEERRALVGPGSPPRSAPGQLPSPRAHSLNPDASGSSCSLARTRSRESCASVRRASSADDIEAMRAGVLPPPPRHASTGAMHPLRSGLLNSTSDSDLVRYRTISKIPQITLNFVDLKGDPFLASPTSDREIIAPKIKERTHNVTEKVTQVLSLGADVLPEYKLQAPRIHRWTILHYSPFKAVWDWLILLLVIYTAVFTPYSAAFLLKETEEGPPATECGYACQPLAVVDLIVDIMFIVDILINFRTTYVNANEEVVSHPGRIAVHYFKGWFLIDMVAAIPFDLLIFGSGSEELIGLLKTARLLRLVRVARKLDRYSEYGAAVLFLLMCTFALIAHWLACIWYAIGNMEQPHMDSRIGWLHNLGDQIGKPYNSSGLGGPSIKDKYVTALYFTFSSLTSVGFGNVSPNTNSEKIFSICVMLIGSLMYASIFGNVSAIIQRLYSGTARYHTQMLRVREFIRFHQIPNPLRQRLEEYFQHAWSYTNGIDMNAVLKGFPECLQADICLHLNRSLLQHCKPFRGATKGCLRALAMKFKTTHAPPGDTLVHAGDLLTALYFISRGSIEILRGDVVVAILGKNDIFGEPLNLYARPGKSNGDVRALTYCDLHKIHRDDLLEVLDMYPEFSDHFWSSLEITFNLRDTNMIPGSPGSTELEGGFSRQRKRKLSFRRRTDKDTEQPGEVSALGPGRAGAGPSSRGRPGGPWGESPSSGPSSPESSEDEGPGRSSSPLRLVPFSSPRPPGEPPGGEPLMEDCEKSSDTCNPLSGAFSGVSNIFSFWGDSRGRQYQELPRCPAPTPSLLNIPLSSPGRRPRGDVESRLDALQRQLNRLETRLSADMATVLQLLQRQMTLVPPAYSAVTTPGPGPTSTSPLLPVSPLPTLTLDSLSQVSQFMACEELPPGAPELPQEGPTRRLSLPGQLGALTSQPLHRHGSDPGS

[36] = biological target: Voltage-gated inwardly rectifying potassium channel KCNH2 (Homo sapiens, UniProt Q12809); assay: Inhibition of hERG by whole cell Qpatch assay; format: toxicity
Sequence of Voltage-gated inwardly rectifying potassium channel KCNH2 (Q12809 whole entry): as above

[37] = Plasma protein binding in mouse incubated for 35 mins by LC-MS/MS analysis; format: ADME, cell-free; conditions: read-out: PPB (converted)

| SMILES | MIC (Escherichia coli [1]) [µg/mL] | MIC (Escherichia coli [2]) [µg/mL] | MIC (Escherichia coli [3]) [µg/mL] | MIC (Klebsiella pneumoniae [4]) [µg/mL] | MIC (Klebsiella pneumoniae [5]) [µg/mL] | MIC (Klebsiella pneumoniae [6]) [µg/mL] | MIC (Escherichia coli [7]) [µg/mL] | MIC (Pseudomonas aeruginosa [8]) [µg/mL] | MIC (Pseudomonas aeruginosa [9]) [µg/mL] | MIC (Pseudomonas aeruginosa [10]) [µg/mL] | MIC (Acinetobacter baumannii [11]) [µg/mL] | MIC (Acinetobacter baumannii [12]) [µg/mL] | MIC (Pseudomonas aeruginosa [13]) [µg/mL] | MIC (Pseudomonas aeruginosa [14]) [µg/mL] | MIC (Klebsiella pneumoniae [19]) [µg/mL] | MIC (Acinetobacter baumannii [20]) [µg/mL] | MIC (Acinetobacter baumannii [21]) [µg/mL] | MIC (Acinetobacter baumannii [22]) [µg/mL] | MIC (Acinetobacter baumannii [23]) [µg/mL] | MIC (Acinetobacter baumannii [24]) [µg/mL] | other results |
| --- | --- | --- | --- | --- | --- | --- | --- | --- | --- | --- | --- | --- | --- | --- | --- | --- | --- | --- | --- | --- | --- |
| C[C@](O/N=C(\C(=O)N[C@@H]1C(=O)N2C(C(=O)O)=C(CSCCNC(=O)c3ccc(O)c(O)c3Cl)CS[C@H]12)c1nc(N)sc1Cl)(C(=O)O)C(F)(F)F.O=C(O)C(F)(F)F | 0.06 | 0.5 | ≤ 0.03 | 0.25 | 0.5 | 0.125 | 0.125 | 0.125 | 8 | 0.06 | 0.06 | 0.5 | 0.25 | 1 | 0.5 | – | – | – | – | – | MIC (Acinetobacter baumannii [15]): 0.125 µg/mL; MIC (Acinetobacter baumannii [16]): 0.5 µg/mL; MIC (Acinetobacter baumannii [17]): 0.5 µg/mL; MIC (Acinetobacter baumannii [18]): 0.125 µg/mL |
| Nc1nc(/C(=N/OC(C(=O)O)C2CCC(F)(F)CC2)C(=O)N[C@@H]2C(=O)N3C(C(=O)O)=C(CSCCNC(=O)c4ccc(O)c(O)c4Cl)CS[C@H]23)cs1.O=C(O)C(F)(F)F (stereo partly drawn) | 0.5 | 0.5 | 0.125 | 2 | 0.5 | 0.25 | ≤ 0.03 | 0.25 | 4 | 1 | – | – | – | – | 1 | 4 | 2 | 4 | 4 | 2 | MIC (Escherichia coli [25]): 0.5 µg/mL; MIC (Escherichia coli [26]): 2 µg/mL; MIC (Klebsiella pneumoniae [27]): 8 µg/mL; MIC (Escherichia coli [28]): 0.5 µg/mL; MIC (Escherichia coli [29]): 0.25 µg/mL; MIC (Klebsiella pneumoniae [30]): 2 µg/mL; AUC(0-inf) [31]: 10400 ng·h/mL; clearance [32]: 33.9 mL/min/kg; half-life [33]: 188 min; MRT [34]: 45.6 min; Vd [35]: 1.59 L/kg; inhibition at 40 µM (hERG (KCNH2)): 16.8%; IC50 [36]: > 40 µM |
| Nc1nc(/C(=N/OC(C(=O)O)C2CCC(F)(F)CC2)C(=O)N[C@@H]2C(=O)N3C(C(=O)O)=C(CSCCNC(=O)c4ccc(O)c(O)c4Cl)CS[C@H]23)c(Cl)s1.O=C(O)C(F)(F)F (stereo partly drawn) | 0.125 | 0.25 | 0.5 | 0.5 | 1 | 1 | 0.125 | 0.5 | – | 0.125 | 0.25 | 2 | 0.5 | 8 | 0.5 | 4 | 1 | 4 | 8 | 4 | AUC(0-inf) [31]: 4740 ng·h/mL; clearance [32]: 54.1 mL/min/kg; half-life [33]: 20.4 min; MRT [34]: 10.8 min; Vd [35]: 0.649 L/kg; fraction unbound at 35 min [37]: 0.031 |
